Laboratory results: paper PMC9147192, “Small Molecule Arranged Thermal Proximity Coaggregation (smarTPCA)—A Novel Approach to Characterize Protein–Protein Interactions in Living Cells by Similar Isothermal Dose–Responses” (International Journal of Molecular Sciences, 2022)

What was measured:
C14orf166 = C14orf166 (Homo sapiens, UniProt Q9Y224); details: living HL-60 cells, […] °C, TMT-MS
From the text: (§1) Therefore, we performed TPP with compound concentration range (TPP-CCR) experiments according to published procedures. In brief, after preparing tryptic peptides from the non-denatured protein fractions (used for immunoblotting in the previous sections) applying the SP3 method, the peptides were labeled using TMT10plex, coding for inhibitor concentration, and the samples belonging to a TMT set were combined, offline high-pH fractionated, and analyzed by MS.
(§2) HL-60 cells were expanded as described above for CETSA and TPP-TR to 1.25 million cells per milliliter. […] A number of 2.5 million cells in 2 mL of medium were added to each tube and incubated (1 h, 37 °C). […]
(§3) For each sample set comprising ten compound concentration range samples, a same volume of the cell extracts containing the fraction of soluble, non-denatured proteins, corresponding to an average of 5 µg total protein, was used for further analysis. The calculated volume was respectively transferred into PCR tubes of a tube strip and supplemented with SDS sample buffer without DTT and bromophenol blue (final concentrations: 7.5% glycerol, 3% SDS, 37.5 mM Tris/HCl pH 7.0) and ddH2O to a final volume of 10 µL, respectively. […]

MAPK3 [1] = molecular target: T1, MAPK3 (Homo sapiens, UniProt P27361); assay: TPP-CCR in living HL-60 cells; assay type: cell-based
T1 construct: endogenous in cells; host or cells: HL-60 (ATCC CCL-240)
From the text: as §1, §2, §3

MAPKAPK2p = assay: CETSA in living HL-60 cells, immunoblot; assay type: cell-based, Homo sapiens
Method: First, we conducted CETSA experiments according to Jafari et al.. […] Subsequent SDS-PAGE and immunoblotting were performed according to optimized conditions allowing for parallel detection of MAPK14, MAPKAPK2, MAPKAPK3, and GSK-3α (Supplementary Figure S1).
(§4) HL-60 cells (ATCC No. CCL-240) were expanded to about […] in 80 mL cell culture medium (RPMI-1640 supplemented with 10% (v/v) FBS, 1% (v/v) penicillin-streptomycin and 1% (v/v) L-glutamine solution) and divided into four aliquots (20 mL each, 25 million cells per flask). […] The same volume of DMSO was added to the remaining aliquot serving as the vehicle (DMSO) control. After incubation (1 h, 37 °C, 5% CO2, in cell culture CO2 incubator), the cell suspensions were transferred into 50 mL conical tubes, cell number and viability were determined, and after centrifugation (300 relative centrifugal force (rcf), 3 min, room temperature (r.t.)), the supernatants were completely removed and discarded. The cells were washed using 20 mL Dulbecco’s phosphate-buffered saline (PBS), respectively, by resuspension and centrifugation (300 rcf, 3 min, r.t.). After the complete removal of the supernatants, the cells were transferred into pre-weighed 2 mL Eppendorf tubes using 0.5 mL PBS (r.t.), respectively, for resuspending. After centrifugation (300 rcf, 3 min, r.t.) and removing as much as possible of the supernatants, the cell wet weights were determined.
(§5) The suspensions were shortly centrifuged (1 s or less) using a benchtop centrifuge that was equipped with an inset for PCR tubes to release trapped air and to achieve an even liquid level without pelleting the cells. The 100 µL cell suspensions were then temperature treated by a 7 min pre-incubation at r.t., a 3 min incubation at the following different temperatures in the PCR cycler (DNA Engine Tetrad 2, lid temperature 70 °C, gradient block 1: 36–55 °C, gradient block 2: 48–67 °C), and a 3 min post-incubation at r.t. in a metal heating block for uniform heat dissipation.
The cells were lysed by four freeze/thaw cycles consisting of thawing the samples (in a heat block set to 25 °C and shaking at 1250 rpm) accompanied by mixing them several times by inversion and then shock freezing them again in liquid nitrogen. […]
For each sample set comprising either ten temperature range samples or ten compound concentration range samples, the same volume of the cell extracts containing the fraction of soluble, non-denatured proteins was used for further analysis. This volume was determined using the two lowest temperature samples (36.5 and 41.2 °C) per temperature range sample set so that they contained an average of 5 µg total protein (e.g., 2.78 µL for all temperature range samples of a sample set whose two lowest temperature samples contain an average of 1.8 mg/mL protein). […]

MAPK3 [2] = molecular target: T1, MAPK3; assay: TPP-TR in living HL-60 cells; assay type: cell-based; details: 20 μM, single set (no replicates)
Method: as §4, §5
The cells were lysed by four freeze/thaw cycles consisting of thawing the samples (in a heat block set to 25 °C and shaking at 1250 rpm) accompanied by mixing them several times by inversion and then shock freezing them again in liquid nitrogen. The resulting lysates were kept cold (on ice or 4 °C) from then on. After centrifugation (20,000 rcf, 30 min, 4 °C) to pellet the cell debris together with precipitated and aggregated proteins, the supernatants were recovered and, after determining the total protein concentration (Pierce 660 nm Protein Assay, BSA as standard), the resulting cell extracts containing the fraction of soluble, non-denatured proteins were shock frozen in liquid nitrogen and stored at −80 °C.
For each sample set comprising ten temperature range samples, the same volume of the cell extracts containing the fraction of soluble, non-denatured proteins was used for further analysis. Volume calculation for 30 µg total protein was performed as described for SDS-PAGE and immunoblotting. The calculated volume was respectively transferred into 0.5 mL LoBind Eppendorf tubes and evaporated to dryness using vacuum centrifugation (SpeedVac concentrator, Eppendorf, Hamburg, Germany). The dried proteins were each reconstituted in 10 µL of SDS sample buffer (containing DTT) and incubated for 30 min at 50 °C with shaking (700 rpm). 1.111 µL 1 M iodoacetamide (IAA) was added to each sample (final 100 mM IAA), then the samples were mixed and incubated for 30 min at r.t. in the dark. Sample quality was controlled by SDS-PAGE/silver staining using 0.926 µL of each sample (2.5 µg on average for the two lowest temperature samples; 26-well 4–12% Bis-Tris polyacrylamide gels, Novex NuPAGE, Thermo Scientific; 15 min at 50 V, about 1.5 h at 200 V using the recommended MOPS running buffer).

[3] = living HL-60 cells, 20 µM inhibitor

T1 sequence (P27361 whole entry): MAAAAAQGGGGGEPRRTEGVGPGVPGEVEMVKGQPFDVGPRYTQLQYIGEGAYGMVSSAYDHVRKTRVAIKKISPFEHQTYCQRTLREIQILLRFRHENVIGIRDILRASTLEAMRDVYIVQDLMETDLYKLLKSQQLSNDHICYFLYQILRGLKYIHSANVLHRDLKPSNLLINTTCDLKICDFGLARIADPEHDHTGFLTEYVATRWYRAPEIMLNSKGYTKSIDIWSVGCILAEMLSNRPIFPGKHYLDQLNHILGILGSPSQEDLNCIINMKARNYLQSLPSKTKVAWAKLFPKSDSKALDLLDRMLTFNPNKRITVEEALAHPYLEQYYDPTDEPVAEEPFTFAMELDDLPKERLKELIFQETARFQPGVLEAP
Chain of C14orf166 (Q9Y224 whole entry): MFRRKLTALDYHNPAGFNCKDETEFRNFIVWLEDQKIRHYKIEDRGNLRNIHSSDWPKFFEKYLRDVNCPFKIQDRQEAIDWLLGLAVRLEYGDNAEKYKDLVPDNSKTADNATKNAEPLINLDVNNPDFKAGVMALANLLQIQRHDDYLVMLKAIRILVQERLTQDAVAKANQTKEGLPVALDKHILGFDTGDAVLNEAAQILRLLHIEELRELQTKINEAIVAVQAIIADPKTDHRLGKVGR

| Compound | Hill slope (C14orf166) (C14orf166) | Hill slope (MAPK3 [1]; TPP-CCR, living cells, MAPK3) | Hill slope (MAPK3) (MAPK3 [1]; living HL-60 cells, […] °C, TMT-MS) | Tm (MAPKAPK2p; MAPKAPK2p, living cells) | ΔTm to DMSO (MAPKAPK2p; MAPKAPK2p, living cells) | Tm (MAPKAPK2p) (MAPKAPK2p; [3]) | ΔTm to DMSO (MAPKAPK2p) (MAPKAPK2p; [3]) | thermal stabilization in melting curves (MAPK3) (MAPK3 [2]) |
| --- | --- | --- | --- | --- | --- | --- | --- | --- |
| C[S+]([O-])c1ccc(-c2nc(-c3ccncc3)c(-c3ccc(F)cc3)[nH]2)cc1 (centres unmarked) [SB203580] | 0.33 | – | – | – | – | – | – | – |
| Cc1cnc(Nc2ccc(F)cc2Cl)nc1-c1c[nH]c(C(=O)N[C@H](CO)c2cccc(Cl)c2)c1 [ERK 11e] | – | 0.59 | 0.59 | 47.18 °C | -1.07 °C | 47.18 °C | −1.07 °C | thermal stabilization |
